Measurements taken from patent US20120190745A1, “ORAL COMPOSITION FOR REDUCING WRINKLE FORMATION” (SHISEIDO COMPANY. LTD., priority 2009, published 2012).

Columns and labels:
tape-stripped mice [1] = test: Skin thickening caused by tape stripping method; type: in vivo, HR-1 hairless mice; details: 10 mM in drinking water for four weeks; tape stripping three times a week; negative control 1.2; p<0.1%
Description: (§1) Five-week old male HR-1 hairless mice (Hoshino Laboratory Animals, Inc.) were subjected to the experiment.
(§2) Drinking water containing 10 mM D-glutamic acid was given via a water supplying bottle for four weeks. The negative control employed was drinking water containing no D-glutamic acid.
(§3) For the purpose of forming a wrinkle, a tape stripping method was conducted three times a week starting on five days after the initiation of the D-glutamic acid administration according to the method by Matsunaga et al. (Matsunaga, Y. et al., Br. J. Dermatol., 156:884 (2007)). […] For example when a non-treated hairless mouse was subjected to the adhesion/peeling off cycle procedures, the first treatment involved four cycles, and the second and third treatments involved each five to six cycles and the treatment in the second week and later involved six to eight cycles, whereby increasing the quantity of the horny layer water loss to about to 8 mg/cm^2/h. […]
Four weeks after the initiation of the D-glutamic acid administration, the skin thickness was measured using a thickness gauge. The measured value of the skin thickness represented as “skin thickness×2”, since the measurement was conducted by calipering the skin with the thickness gauge.

tape-stripped mice [2] = test: Wrinkle formation caused by tape stripping method; type: in vivo, HR-1 hairless mice; details: 10 mM in drinking water for four weeks, score 0-8 per Table 1, control 3.5, p<1%
Description: as §1, §2
as §3, with “(2007)). Briefly, a 24-mm width cellophane tape (Cellotape (trade mark), Nichiban Co., Ltd.) cut in a length suited to the dorsal length of a hairless mouse (HR-1 strain; Hoshino Laboratory Animals, Inc., Tokyo) was adhered evenly over the entire dorsal area and then peeled off.” for “(2007)).”

[3] = system: mice irradiated with ultraviolet rays; test: Transepidermal water loss (skin barrier function) in mice irradiated with ultraviolet rays; type: in vivo, Skh-1 hairless mice; details: 10 mM in drinking water for four weeks; UV-B three times a week, total 1.4 J/cm^2; control 16
Description: (§4) Six week-old Skh-1 hairless mice (male) were employed.
as §2
(§5) UV irradiation was conducted employing a partly modified method by Schwarz et al. (Haratake, A. et al., J. Invest. Dermatol. 108:769 (1997)) in accordance with the repetitive UV-B irradiation method (Naganuma, M. et al., J. Dermatol.Sci.25:29 (2001), Schwartz, E. J., Invest. Dermatol. 91:158 (1988)). Thus, the dorsal area was irradiated with UV-B(light source: Toshiba FL-20 SE fluorescent lamp manufactured by Toshiba Electric) three times a week for four weeks. The total irradiation dose was 1.4 J/cm^2. The UV dose measured with UVRADIOMETER (UVR-305/365D(II), Topcon Corporation) was employed as a readout.
Four weeks after the initiation of the D-glutamic acid administration, the quantity of the transepidermal water loss was measured according to a standard method.

[4] = system: mice irradiated with ultraviolet rays; test: Wrinkle formation caused by UV irradiation; type: in vivo, Skh-1 hairless mice; details: 10 mM in drinking water for four weeks; UV-B three times a week, total 1.4 J/cm^2; score 0-8 per Table 1; control 4.9; p<1%
Description: Four weeks after the initiation of the D-glutamic acid administration, the dorsal areas of the mice were photographed, and a partly modified method by Bissett et al. (Bissett, D. L. et al., Photochemistry and Photobiology, 46:367(1987)) was employed to evaluate the degree of wrinkle formation in accordance with the judgment criteria indicated in Table 1 shown below.
as §4, §2, §5
The wrinkle formation was evaluated by a method similar to that in Example 1.

In the case of N[C@H](CCC(=O)O)C(=O)O [D-glutamic acid], the “mean value of the skin thickness (skin thickness×2)” value (tape-stripped mice [1]) is reported as 1.05, the wrinkle score (tape-stripped mice [2]) is reported as 1.5 and the “quantity of the transepidermal water loss” value [3] is reported as 13. The wrinkle score [4] was 3.3.
